These results are taken from patent publication US20240317721A1, “PYRAZOLYL DERIVATIVES AS INHIBITORS OF THE KRAS MUTANT PROTEIN” (NOVARTIS AG, priority 2021, published 2024).

In this assay the target is KRasG12C (M1-K169, biotinylated on the N-terminus) (Homo sapiens (Human), UniProt P01116, G12C). The assay can be described thus: Covalent competition assay: scintillation proximity assay (SPA) quantifying covalent modification of KRASG12C. The following applies: competition with radiolabeled covalent probe (Compound B/Compound A), 2 hours incubation, 10 nM KRasG12C. The class given is binding. The essentials:
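Test compounds compete with a radiolabeled covalent probe for modification of N-terminally biotinylated KRasG12C(M1-K169):GDP, final 10 nM protein, 25 nM radio-ligand, 475 nM unlabelled ligand, 2 h with agitation in 20 mM Tris-HCl pH 7.5, 150 mM NaCl, 0.1 mM MgCl2, 0.01% Tween-20.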
In general terms: SPA uses beads or plates that emit light when radiolabelled molecules are held near them.
For `C=CC(=O)N1CC2(CC(n3nc(N4CCN(C5CCOCC5)CC4(C)C)c(-c4c(Cl)c(C)cc5[nH]ncc45)c3C)C2)C1` (single isomer, unassigned) [Example 134a, 1-(6-(4-(5-chloro-6-methyl-1H-indazol-4-yl)-3-(2,2-dimethyl-4-(tetrahydro-2H-pyran-4-yl)piperazin-1-yl)-5-methyl-1H-pyrazol-1-yl)-2-azaspiro[3.3]heptan-2-yl)prop-2-en-1-one], the IC50 was over 5000 nM. For the molecule `C=CC(=O)N1CC2(CC(n3nc(N4CCC5C(=O)N(C)CC5C4)c(-c4c(Cl)c(C)cc5[nH]ncc45)c3C)C2)C1` (stereo not drawn) [Example 17, (3aS*,7aS*)-5-(1-(2-acryloyl-2-azaspiro[3.3]heptan-6-yl)-4-(5-chloro-6-methyl-1H-indazol-4-yl)-5-methyl-1H-pyrazol-3-yl)-2-methyloctahydro-1H-pyrrolo[3,4-c]pyridin-1-one], the half-inhibitory concentration (IC50) was found to be 829 nM. The same measure for `C/C=C/C(=O)N1CC2(CC(n3nc(N4CCN(C5COC5)CC45CCC5)c(-c4c(Cl)c(C)cc5[nH]ncc45)c3C)C2)C1` (single isomer, unassigned) [Example 138b, (E)-1-(6-(4-(5-chloro-6-methyl-1H-indazol-4-yl)-5-methyl-3-(8-(oxetan-3-yl)-5,8-diazaspiro[3.5]nonan-5-yl)-1H-pyrazol-1-yl)-2-azaspiro[3.3]heptan-2-yl)but-2-en-1-one]: 2780 nM; for `C=CC(=O)N1CC2(CC(n3nc(N4CCN(CC(C)(C)O)CC45CCC5)c(-c4c(Cl)c(F)cc5[nH]ncc45)c3C)C2)C1` (single isomer, unassigned) [Example 167a, 1-(6-(4-(5-chloro-6-fluoro-1H-indazol-4-yl)-3-(8-(2-hydroxy-2-methylpropyl)-5,8-diazaspiro[3.5]nonan-5-yl)-5-methyl-1H-pyrazol-1-yl)-2-azaspiro[3.3]heptan-2-yl)prop-2-en-1-one]: over 5000 nM. As for `C=CC(=O)N1CC2(CC(n3nc(N4CCc5c(cnn5C)C4)c(-c4c(Cl)c(C)cc5[nH]ncc45)c3C)C2)C1` (single isomer, unassigned) [Example 11b, 1-(6-(4-(5-chloro-6-methyl-1H-indazol-4-yl)-5-methyl-3-(1-methyl-1,4,6,7-tetrahydro-5H-pyrazolo[4,3-c]pyridin-5-yl)-1H-pyrazol-1-yl)-2-azaspiro[3.3]heptan-2-yl)prop-2-en-1-one], the IC50 was 120 nM.

`C=CC(=O)N1CC2(CC(n3nc(N4CC[C@@H](CN5CCOCC5)CC4(C)C)c(-c4c(Cl)c(C)cc5[nH]nc(C)c45)c3C#N)C2)C1` (single isomer, unassigned) [Example 225a]: the IC50 came out at 341 nM. For the molecule `C=CC(=O)N1CC2(CC(n3nc(N4CCN(C5COC5)CC45CCOC5)c(-c4c(Cl)c(C)cc5[nH]ncc45)c3C)C2)C1` (stereo not drawn) [Example 141a, 1-(6-(4-(5-chloro-6-methyl-1H-indazol-4-yl)-5-methyl-3-(9-(oxetan-3-yl)-2-oxa-6,9-diazaspiro[4.5]decan-6-yl)-1H-pyrazol-1-yl)-2-azaspiro[3.3]heptan-2-yl)prop-2-en-1-one], the IC50 is over 5000 nM. The value for `C=CC(=O)N1CC2(CC(n3nc(N4CCc5nn(C)c(=O)cc5C4)c(-c4c(Cl)c(C)cc5[nH]ncc45)c3C)C2)C1` (single isomer, unassigned) [Example 40b, 6-(1-(2-acryloyl-2-azaspiro[3.3]heptan-6-yl)-4-(5-chloro-6-methyl-1H-indazol-4-yl)-5-methyl-1H-pyrazol-3-yl)-2-methyl-5,6,7,8-tetrahydropyrido[4,3-c]pyridazin-3(2H)-one] was 633 nM. As to `C/C=C/C(=O)N1CC2(CC(n3nc(N4CCN(C5COC5)CC45CCC5)c(-c4c(Cl)c(C)cc5[nH]ncc45)c3C)C2)C1` (single isomer, unassigned) [Example 138a, (E)-1-(6-(4-(5-chloro-6-methyl-1H-indazol-4-yl)-5-methyl-3-(8-(oxetan-3-yl)-5,8-diazaspiro[3.5]nonan-5-yl)-1H-pyrazol-1-yl)-2-azaspiro[3.3]heptan-2-yl)but-2-en-1-one], the IC50 was over 5000 nM. `CC[C@@]1(C)CN(C[C@@H]2COCCO2)CCN1c1nn(C2CC3(C2)CN(C(=O)/C=C/Cl)C3)c(C)c1-c1c(Cl)c(C)cc2[nH]ncc12` (single isomer, unassigned) [Example 175b]: the IC50 came out at 9 nM. As for `C=CC(=O)N1CC2(CC(n3nc(N4CCN(C5CCOCC5)C[C@@]4(C)C(F)F)c(-c4c(Cl)c(Cl)cc5[nH]ncc45)c3C)C2)C1` (single isomer, unassigned) [Example 106a], the IC50 was over 5000 nM. The value for `C=CC(=O)N1CC2(CC(n3nc(N4CCC(CN5CC6COCC6C5)CC4(C)C)c(-c4c(Cl)c(Cl)cc5[nH]ncc45)c3C)C2)C1` (single isomer, unassigned) [Example 226a, 1-(6-(4-(5,6-dichloro-1H-indazol-4-yl)-3-(2,2-dimethyl-4-((tetrahydro-1H-furo[3,4-c]pyrrol-5(3H)-yl)methyl)piperidin-1-yl)-5-methyl-1H-pyrazol-1-yl)-2-azaspiro[3.3]heptan-2-yl)prop-2-en-1-one] was 119 nM; that for `C=CC(=O)N1CC2(CC(n3nc(N4CCN(C5CCOCC5)C[C@]4(C)CCOC)c(-c4c(Cl)c(C)cc5[nH]ncc45)c3C)C2)C1` (single isomer, unassigned) [Example 87b] was 1500 nM.

Regarding `C=CC(=O)N1CC2(CC(n3nc(N4CCN(C(C)=O)CC4)c(-c4c(Cl)ccc5[nH]ncc45)c3C)C2)C1` (single isomer, unassigned) [Example 36b, 1-(6-(3-(4-acetylpiperazin-1-yl)-4-(5-chloro-1H-indazol-4-yl)-5-methyl-1H-pyrazol-1-yl)-2-azaspiro[3.3]heptan-2-yl)prop-2-en-1-one], the IC50 was determined as 2400 nM. The value for `C=CC(=O)N1CC2(CC(n3nc(N4CCC5(CN(C6COC6)C5)CC4(C)C)c(-c4c(Cl)c(Cl)cc5[nH]ncc45)c3C)C2)C1` (single isomer, unassigned) [Example 92a, 1-(6-(4-(5,6-dichloro-1H-indazol-4-yl)-3-(6,6-dimethyl-2-(oxetan-3-yl)-2,7-diazaspiro[3.5]nonan-7-yl)-5-methyl-1H-pyrazol-1-yl)-2-azaspiro[3.3]heptan-2-yl)prop-2-en-1-one] was 2100 nM.

Turning to `C=CC(=O)N1CC2(CC(n3nc(N4CC[C@@H](CN5CCC6(C5)CN(C(C)=O)C6)CC4(C)C)c(-c4c(Cl)c(Cl)cc5[nH]ncc45)c3C)C2)C1` (single isomer, unassigned) [Example 317a], the IC50 is 888 nM.

With `C=CC(=O)N1CC2(CC(n3nc(N4CCC(N(CC)C5COC5)CC4(C)C)c(-c4c(Cl)c(C)cc5[nH]ncc45)c3C)C2)C1` (single isomer, unassigned) [Example 48b, 1-(6-(4-(5-chloro-6-methyl-1H-indazol-4-yl)-3-(4-(ethyl(oxetan-3-yl)amino)-2,2-dimethylpiperidin-1-yl)-5-methyl-1H-pyrazol-1-yl)-2-azaspiro[3.3]heptan-2-yl)prop-2-en-1-one], the IC50 stood at 6 nM.

Take `C=CC(=O)N1CC2(CC(n3nc(N4CCC(CN5CCOCC5)C4(C)C)c(-c4c(Cl)c(Cl)cc5[nH]ncc45)c3C)C2)C1` (single isomer, unassigned) [Example 219b, 1-(6-(4-(5,6-dichloro-1H-indazol-4-yl)-3-(2,2-dimethyl-3-(morpholinomethyl)pyrrolidin-1-yl)-5-methyl-1H-pyrazol-1-yl)-2-azaspiro[3.3]heptan-2-yl)prop-2-en-1-one]: the IC50 stood at 42 nM.

In general, IC50 refers to the point on the concentration scale where inhibition reaches its midpoint.
